Results: ChEMBL document CHEMBL1764955, “The synthesis and evaluation of indolylureas as PKCα inhibitors” (Bioorg Med Chem, 2011)
pIC50: −log10 of the molar value.

Columns and labels:
[1] = molecular target: cAMP-dependent protein kinase catalytic subunit beta (Homo sapiens, UniProt P22694); test: Inhibition of PKA activity using kemptide as a substrate in presence of 50 uM ATP by mass spectrometry
[2] = molecular target: Protein kinase C alpha type (Homo sapiens, UniProt P17252); test: Inhibition of human PKCalpha activity using neurogranin as a substrate in presence of 50 uM ATP by mass spectrometry

Row | Compound | pIC50 [1] | pIC50 [2]
1 | CN(C)CCCn1cc(NC(=O)Nc2nccc(-c3ccccc3)n2)c2ccccc21 | 4.63 | 7.02
2 | CCN(CC)CCCn1cc(NC(=O)Nc2cncc(-c3ccccc3)n2)c2ccccc21 | – | 5.09
3 | CCN(CC)CCCn1cc(NC(=O)Nc2ccnc(-c3ccccc3)n2)c2ccccc21 | – | 5.32
4 | CCN(CC)CCCn1cc(NC(=O)Nc2cccc(-c3ccccc3)n2)c2ccccc21 | – | 5.57
